Laboratory results from PubChem BioAssay (NCI).
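These data come from cells grown in 96-well plates and exposed to compound for 48 hours at five concentrations. GI50: concentration for 50% inhibition of growth. At the TGI there is no net growth.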

Experiments:
Assay in all cases: NCI tumour cell line growth inhibition, 48 h
[1] = test system: HCT-116 colon
[2] = test system: SK-MEL-5 melanoma
[3] = test system: M19-MEL melanoma
[4] = test system: SK-MEL-28 melanoma
[5] = test system: MCF7 breast
[6] = test system: DMS 114 small cell lung
[7] = test system: KM12 colon
[8] = test system: EKVX NSCLC
[9] = test system: U251 CNS
[10] = test system: UO-31 renal
[11] = test system: NCI-H522 lung
[12] = test system: MALME-3M melanoma
[13] = test system: HL-60(TB) leukemia
[14] = test system: CCRF-CEM leukemia
[15] = test system: HCT-15 colon
[16] = test system: HOP-62 NSCLC
[17] = test system: HOP-92 NSCLC
[18] = test system: NCI/ADR-RES ovarian
[19] = test system: OVCAR-3 ovarian
[20] = test system: SF-268 CNS
[21] = test system: DMS 273 small cell lung
[22] = test system: P388 leukemia
[23] = test system: KM20L2 colon
[24] = test system: IGROV1 ovarian
[25] = test system: DLD-1 colon
[26] = test system: SF-539 CNS
[27] = test system: SK-OV-3 ovarian
[28] = test system: UACC-62 melanoma
[29] = test system: SNB-78 CNS
[30] = test system: HCC-2998 colon
[31] = test system: SN12K1 renal
[32] = test system: RXF 393 renal
[33] = test system: OVCAR-4 ovarian
[34] = test system: P388/ADR leukemia
[35] = test system: RPMI-8226 leukemia
[36] = test system: CAKI-1 renal
[37] = test system: SF-295 CNS
[38] = test system: SW-620 colon
[39] = test system: SN12C renal
[40] = test system: SNB-75 CNS
[41] = test system: COLO 205 colon
[42] = test system: HOP-18 NSCLC
[43] = test system: A498 renal
[44] = test system: OVCAR-8 ovarian
[45] = test system: LOX IMVI melanoma
[46] = test system: UACC-257 melanoma
[47] = test system: XF 498 CNS
[48] = test system: OVCAR-5 ovarian
[49] = test system: HT29 colon
[50] = test system: A549 NSCLC
[51] = test system: SK-MEL-2 melanoma
[52] = test system: NCI-H23 lung
[53] = test system: K-562 leukemia
[54] = test system: MOLT-4 leukemia
[55] = test system: NCI-H460 lung
[56] = test system: NCI-H226 lung
[57] = test system: SNB-19 CNS

What does the source list for C/C(=C/c1c(C)[nH]c(=O)[nH]c1=O)C(=O)O?
TGI [1]: > 1380 µM; TGI [2]: > 1370 µM; TGI [3]: > 1380 µM; TGI [4]: > 1380 µM; TGI [5]: > 1380 µM; TGI [6]: > 1380 µM; TGI [7]: > 1380 µM; GI50 [8]: 1030 µM; TGI [8]: > 1380 µM; TGI [9]: > 1370 µM; TGI [10]: > 1380 µM; TGI [11]: > 1380 µM; TGI [12]: > 1380 µM; TGI [13]: > 1380 µM; TGI [14]: > 1380 µM; TGI [15]: > 1380 µM; TGI [16]: > 1380 µM; GI50 [17]: > 1380 µM; TGI [17]: > 1380 µM; TGI [18]: > 1380 µM; TGI [19]: > 1380 µM; TGI [20]: > 1380 µM; TGI [21]: > 1380 µM; GI50 [22]: > 1370 µM; TGI [22]: > 1370 µM; TGI [23]: > 1370 µM; TGI [24]: > 1380 µM; TGI [25]: > 1380 µM; TGI [26]: > 1380 µM; TGI [27]: > 1370 µM; TGI [28]: > 1380 µM; TGI [29]: > 1380 µM; TGI [30]: > 1380 µM; TGI [31]: > 1380 µM; TGI [32]: > 1380 µM; TGI [33]: > 1380 µM; TGI [34]: 1370 µM; TGI [35]: > 1380 µM; TGI [36]: > 1380 µM; TGI [37]: > 1380 µM; TGI [38]: > 1380 µM; TGI [39]: > 1380 µM; TGI [40]: > 1380 µM; TGI [41]: > 1380 µM; TGI [42]: > 1380 µM; TGI [43]: > 1380 µM; GI50 [44]: > 1380 µM; TGI [44]: > 1380 µM; TGI [45]: > 1380 µM; TGI [46]: > 1380 µM; TGI [47]: > 1370 µM; TGI [48]: 1370 µM; TGI [49]: > 1380 µM; TGI [50]: > 1380 µM; GI50 [51]: > 1380 µM; TGI [51]: > 1380 µM; TGI [52]: > 1380 µM; TGI [53]: > 1380 µM; TGI [54]: > 1380 µM; TGI [55]: > 1380 µM; TGI [56]: > 1370 µM; TGI [57]: > 1370 µM
